# From publication PMC7316994, “In Vitro Pharmacological Profile of a New Small Molecule Bradykinin B2 Receptor Antagonist” (Frontiers in Pharmacology, 2020)
# Like-named read-outs stand apart in the source and are kept apart here.
# Assays:
# Somatostatin sst5 = Somatostatin sst5 (Homo sapiens, UniProt P35346); assay: radioligand binding (Table S2); settings: [125I] Tyr11-Somatostatin 14, Human recombinant Chem-1 cells
# Prostanoid FP = target: T1, Prostanoid FP (Homo sapiens, UniProt P43088); assay: radioligand binding (Table S2); settings: [3H] Prostaglandin F2α, Human recombinant HEK-293 cells
# T1 construct: host or cells: HEK-293 cells
# T1 sequence (P43088 whole entry): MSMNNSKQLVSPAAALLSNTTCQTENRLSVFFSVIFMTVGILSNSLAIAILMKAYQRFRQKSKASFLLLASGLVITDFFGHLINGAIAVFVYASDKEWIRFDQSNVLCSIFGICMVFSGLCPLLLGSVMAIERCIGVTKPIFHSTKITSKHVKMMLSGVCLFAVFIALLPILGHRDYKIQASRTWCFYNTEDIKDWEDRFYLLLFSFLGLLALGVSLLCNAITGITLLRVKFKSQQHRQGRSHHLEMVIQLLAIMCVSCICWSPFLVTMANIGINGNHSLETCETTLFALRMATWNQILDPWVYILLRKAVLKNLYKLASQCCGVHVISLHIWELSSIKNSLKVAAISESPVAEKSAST
# Prostacyclin IP (PGI2) = target: T2, Prostacyclin IP (PGI2) (Homo sapiens, UniProt P43119); assay: radioligand binding (Table S2); settings: [3H] Iloprost, Human recombinant HEK-293 cells
# T2 construct: host or cells: HEK-293 cells
# T2 sequence (P43119 whole entry): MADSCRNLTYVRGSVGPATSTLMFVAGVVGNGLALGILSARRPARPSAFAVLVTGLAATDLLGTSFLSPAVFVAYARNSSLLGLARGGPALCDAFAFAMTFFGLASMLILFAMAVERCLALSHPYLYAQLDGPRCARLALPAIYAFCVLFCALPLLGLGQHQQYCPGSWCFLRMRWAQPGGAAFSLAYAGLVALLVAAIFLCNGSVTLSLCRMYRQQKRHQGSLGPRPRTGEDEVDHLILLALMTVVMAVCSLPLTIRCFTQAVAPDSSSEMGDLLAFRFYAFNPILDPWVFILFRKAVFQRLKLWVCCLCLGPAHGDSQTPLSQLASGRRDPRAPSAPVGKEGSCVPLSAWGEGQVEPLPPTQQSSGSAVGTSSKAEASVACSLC
# B2 receptor [1] = target: T3, B2 receptor (Homo sapiens, UniProt P30411); assay: [^3H]BK competition binding assay, CHO cell membranes; design: host or cells: CHO cells; settings: competition with 0.3 nM [^3H]BK
# T3 sequence (P30411 1-391): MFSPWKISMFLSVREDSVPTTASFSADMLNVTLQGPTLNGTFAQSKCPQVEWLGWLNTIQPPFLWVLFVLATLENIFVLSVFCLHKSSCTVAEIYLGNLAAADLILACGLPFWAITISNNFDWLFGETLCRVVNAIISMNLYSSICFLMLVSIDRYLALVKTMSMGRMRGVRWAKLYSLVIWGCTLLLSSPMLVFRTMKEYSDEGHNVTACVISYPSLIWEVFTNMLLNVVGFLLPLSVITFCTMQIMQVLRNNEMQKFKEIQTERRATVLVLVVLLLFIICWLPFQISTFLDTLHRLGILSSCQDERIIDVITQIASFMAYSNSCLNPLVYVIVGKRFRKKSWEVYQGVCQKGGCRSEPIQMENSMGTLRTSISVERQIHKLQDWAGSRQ
# Motilin = Motilin (Homo sapiens, UniProt O43193); assay: radioligand binding (Table S2); settings: [125I] Motilin, Human recombinant CHO cells
# Sequence of Motilin (O43193 whole entry): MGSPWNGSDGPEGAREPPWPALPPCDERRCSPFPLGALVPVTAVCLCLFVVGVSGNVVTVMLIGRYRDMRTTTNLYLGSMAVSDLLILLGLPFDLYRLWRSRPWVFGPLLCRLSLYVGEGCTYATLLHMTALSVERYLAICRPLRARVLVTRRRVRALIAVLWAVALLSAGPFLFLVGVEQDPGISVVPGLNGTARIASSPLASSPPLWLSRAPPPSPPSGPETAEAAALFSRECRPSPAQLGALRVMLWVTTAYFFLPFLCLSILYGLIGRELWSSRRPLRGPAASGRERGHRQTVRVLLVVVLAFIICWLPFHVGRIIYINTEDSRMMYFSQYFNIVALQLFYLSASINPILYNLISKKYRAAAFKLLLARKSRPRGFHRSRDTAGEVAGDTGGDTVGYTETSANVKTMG
# Histamine H3 = target: T4, Histamine H3 (Homo sapiens, UniProt Q9Y5N1); assay: radioligand binding (Table S2); settings: [3H] Nα-Me-histamine, Human recombinant CHO cells
# T4 construct: host or cells: CHO cells
# T4 sequence (Q9Y5N1 whole entry): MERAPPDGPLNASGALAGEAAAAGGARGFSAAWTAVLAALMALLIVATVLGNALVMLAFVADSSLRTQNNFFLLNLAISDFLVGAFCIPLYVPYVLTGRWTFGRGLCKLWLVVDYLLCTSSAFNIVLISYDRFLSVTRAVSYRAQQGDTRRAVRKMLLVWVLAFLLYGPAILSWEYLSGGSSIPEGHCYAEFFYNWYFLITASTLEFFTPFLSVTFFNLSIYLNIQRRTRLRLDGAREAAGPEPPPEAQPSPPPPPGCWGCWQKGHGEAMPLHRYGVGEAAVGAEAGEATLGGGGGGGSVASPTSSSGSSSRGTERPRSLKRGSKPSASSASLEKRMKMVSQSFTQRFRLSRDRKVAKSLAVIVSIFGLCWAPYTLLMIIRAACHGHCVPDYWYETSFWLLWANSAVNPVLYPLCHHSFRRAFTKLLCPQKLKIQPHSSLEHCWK
# [2] = test system: Gamma-aminobutyric acid GABAA, muscimol, central; assay: radioligand binding (Table S2); settings: [3H] Muscimol, Wistar rat brain (minus cerebellum)
# B2 receptor [3] = target: T3, B2 receptor; assay: Ca^2+ mobilization assay, transfected CHO cells; format: cell-based; design: host or cells: CHO cells; settings: inhibition of response to 0.03 nM BK
# Adrenergic β3 = Adrenergic β3 (Homo sapiens, UniProt P13945); assay: radioligand binding (Table S2); settings: read-out: % Inhibition @ 10 µM
# Sequence of Adrenergic β3 (P13945 whole entry): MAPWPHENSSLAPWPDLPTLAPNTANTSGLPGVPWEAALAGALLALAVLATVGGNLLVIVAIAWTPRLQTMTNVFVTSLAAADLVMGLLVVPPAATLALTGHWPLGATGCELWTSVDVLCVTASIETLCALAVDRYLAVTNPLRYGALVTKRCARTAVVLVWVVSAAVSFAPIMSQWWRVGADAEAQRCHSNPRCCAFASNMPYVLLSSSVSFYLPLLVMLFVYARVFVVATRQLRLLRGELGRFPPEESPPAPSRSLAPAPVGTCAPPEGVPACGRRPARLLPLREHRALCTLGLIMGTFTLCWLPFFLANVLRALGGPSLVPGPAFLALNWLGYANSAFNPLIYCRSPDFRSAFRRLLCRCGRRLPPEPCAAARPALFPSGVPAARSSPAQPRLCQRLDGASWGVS
# dog B2 receptor = target: T5, dog B2 receptor (Canis lupus familiaris, UniProt Q9BDQ4); assay: Ca^2+ mobilization assay, HEK293T cells; format: cell-based
# T5 sequence (Q9BDQ4 1-392): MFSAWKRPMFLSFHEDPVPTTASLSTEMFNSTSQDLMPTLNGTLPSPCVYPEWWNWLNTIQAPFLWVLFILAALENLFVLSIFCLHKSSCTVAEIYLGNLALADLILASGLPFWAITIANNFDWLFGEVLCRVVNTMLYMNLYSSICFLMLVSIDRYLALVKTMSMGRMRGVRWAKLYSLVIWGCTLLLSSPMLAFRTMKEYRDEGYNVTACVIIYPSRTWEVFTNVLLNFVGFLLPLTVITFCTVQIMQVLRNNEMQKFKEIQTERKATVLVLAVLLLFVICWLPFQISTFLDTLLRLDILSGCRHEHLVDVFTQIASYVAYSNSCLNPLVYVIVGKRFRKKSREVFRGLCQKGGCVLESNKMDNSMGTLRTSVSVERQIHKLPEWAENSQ
# Chemokine CCR1 = target: T6, Chemokine CCR1 (Homo sapiens, UniProt P32246); assay: radioligand binding (Table S2); settings: [125I] MIP-1α, Human recombinant HEK-293 cells
# T6 construct: host or cells: HEK-293 cells
# T6 sequence (P32246 whole entry): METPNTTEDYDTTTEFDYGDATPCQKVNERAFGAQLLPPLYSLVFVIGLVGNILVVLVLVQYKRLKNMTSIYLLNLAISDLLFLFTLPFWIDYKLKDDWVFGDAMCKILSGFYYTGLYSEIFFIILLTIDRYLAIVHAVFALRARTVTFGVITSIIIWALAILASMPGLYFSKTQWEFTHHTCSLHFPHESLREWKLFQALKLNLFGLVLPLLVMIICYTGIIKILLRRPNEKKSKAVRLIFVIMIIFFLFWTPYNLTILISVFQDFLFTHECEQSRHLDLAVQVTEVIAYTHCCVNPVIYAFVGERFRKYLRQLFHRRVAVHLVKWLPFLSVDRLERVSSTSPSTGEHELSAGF
# Melanocortin MC5 = target: T7, Melanocortin MC5 (Homo sapiens, UniProt P33032); assay: radioligand binding (Table S2); settings: [125I] NDP-α-MSH, Human recombinant CHO cells
# T7 construct: host or cells: CHO cells
# T7 sequence (P33032 whole entry): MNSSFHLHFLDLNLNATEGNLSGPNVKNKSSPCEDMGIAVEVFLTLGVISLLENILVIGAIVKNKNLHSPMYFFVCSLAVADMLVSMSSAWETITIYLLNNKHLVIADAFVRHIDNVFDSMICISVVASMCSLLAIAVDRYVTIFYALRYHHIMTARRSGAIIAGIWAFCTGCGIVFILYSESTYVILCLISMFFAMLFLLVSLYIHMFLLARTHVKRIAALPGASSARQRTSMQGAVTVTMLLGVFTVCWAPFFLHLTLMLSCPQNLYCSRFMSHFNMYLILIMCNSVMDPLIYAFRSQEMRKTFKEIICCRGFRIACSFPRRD
# TP (TXA2/PGH2) = target: T8, TP (TXA2/PGH2) (Homo sapiens, UniProt P21731); assay: functional assay, intracellular [Ca2+], HEK-293 cells (Table S2); format: cell-based; settings: for inhibition at 10 µM: HEK293, read-out: % inhibition of reference agonist response @ 10 µM (antagonist effect), 10 µM, U 44069 (10 nM)
# T8 construct: expressed in transfected cells; host or cells: HEK-293 cells
# T8 sequence (P21731 1-343): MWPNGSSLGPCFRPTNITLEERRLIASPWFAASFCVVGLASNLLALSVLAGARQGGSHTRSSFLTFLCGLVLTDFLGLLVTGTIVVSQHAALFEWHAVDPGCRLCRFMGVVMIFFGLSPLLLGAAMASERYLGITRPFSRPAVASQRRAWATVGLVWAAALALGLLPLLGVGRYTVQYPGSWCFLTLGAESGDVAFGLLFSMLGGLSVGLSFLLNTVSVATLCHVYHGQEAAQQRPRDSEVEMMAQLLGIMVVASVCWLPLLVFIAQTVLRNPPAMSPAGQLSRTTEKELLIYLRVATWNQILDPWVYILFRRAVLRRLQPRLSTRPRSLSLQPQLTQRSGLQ
# Serotonin 5-HT2A = target: T9, Serotonin 5-HT2A (Homo sapiens, UniProt P28223); assay: radioligand binding (Table S2); settings: [125I] (±)DOI, Human recombinant HEK-293 cells
# T9 construct: host or cells: HEK-293 cells
# T9 sequence (P28223 whole entry): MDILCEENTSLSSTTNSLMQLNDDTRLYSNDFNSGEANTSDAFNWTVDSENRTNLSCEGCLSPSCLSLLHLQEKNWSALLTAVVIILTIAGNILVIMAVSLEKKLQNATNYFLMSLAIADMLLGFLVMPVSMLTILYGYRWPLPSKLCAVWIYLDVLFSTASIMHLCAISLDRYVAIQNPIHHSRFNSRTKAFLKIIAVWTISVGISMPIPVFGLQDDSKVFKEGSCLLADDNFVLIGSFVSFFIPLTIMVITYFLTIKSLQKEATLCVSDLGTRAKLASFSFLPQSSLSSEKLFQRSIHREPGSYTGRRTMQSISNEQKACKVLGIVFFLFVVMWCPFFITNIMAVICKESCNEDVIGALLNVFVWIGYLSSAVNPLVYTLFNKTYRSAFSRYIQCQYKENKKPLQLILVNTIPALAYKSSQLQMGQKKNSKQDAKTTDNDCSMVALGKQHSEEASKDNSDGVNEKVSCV
# Dopamine transporter = target: T10, Dopamine transporter (Homo sapiens, UniProt Q01959); assay: radioligand binding (Table S2); settings: [3H] BTCP, Human recombinant CHO cells
# T10 construct: host or cells: CHO cells
# T10 sequence (Q01959 whole entry): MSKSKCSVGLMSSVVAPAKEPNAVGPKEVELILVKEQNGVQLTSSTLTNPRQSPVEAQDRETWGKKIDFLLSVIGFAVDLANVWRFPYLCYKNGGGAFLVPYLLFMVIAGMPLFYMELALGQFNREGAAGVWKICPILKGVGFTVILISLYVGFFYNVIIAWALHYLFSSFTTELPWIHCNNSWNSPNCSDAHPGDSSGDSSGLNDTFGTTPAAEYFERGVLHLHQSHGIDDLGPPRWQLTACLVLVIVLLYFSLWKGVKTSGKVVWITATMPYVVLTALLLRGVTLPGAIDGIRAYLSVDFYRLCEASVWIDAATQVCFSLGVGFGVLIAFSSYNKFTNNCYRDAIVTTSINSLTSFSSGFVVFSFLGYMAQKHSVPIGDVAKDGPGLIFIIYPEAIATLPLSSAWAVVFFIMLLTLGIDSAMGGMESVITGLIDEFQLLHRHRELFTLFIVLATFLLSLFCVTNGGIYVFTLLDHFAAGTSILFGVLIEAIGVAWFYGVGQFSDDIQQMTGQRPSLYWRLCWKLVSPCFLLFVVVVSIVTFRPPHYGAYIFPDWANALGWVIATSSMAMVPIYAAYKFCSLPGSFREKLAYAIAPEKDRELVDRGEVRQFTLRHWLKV
# [4] = test system: panel of G protein-coupled receptors (GPCRs), ion channels, enzymes and transporters
# Chemokine CXCR2 (IL-8RB) = Chemokine CXCR2 (IL-8RB) (Homo sapiens, UniProt P25025); assay: radioligand binding (Table S2); settings: [125I] IL-8, Human recombinant CHO-K1 cells
# Sequence of Chemokine CXCR2 (IL-8RB) (P25025 whole entry): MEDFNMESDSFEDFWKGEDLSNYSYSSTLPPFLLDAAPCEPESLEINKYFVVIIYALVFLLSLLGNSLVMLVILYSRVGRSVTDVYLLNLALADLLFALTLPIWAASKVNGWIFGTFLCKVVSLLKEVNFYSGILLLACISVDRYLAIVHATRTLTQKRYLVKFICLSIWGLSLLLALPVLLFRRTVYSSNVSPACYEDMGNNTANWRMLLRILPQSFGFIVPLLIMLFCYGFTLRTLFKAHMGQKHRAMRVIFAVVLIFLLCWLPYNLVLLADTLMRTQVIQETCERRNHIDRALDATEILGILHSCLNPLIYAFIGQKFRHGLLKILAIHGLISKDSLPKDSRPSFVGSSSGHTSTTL
# [5] = arithmetic mean, read-out: IC50 (nM) Mean
# [6] = geometric mean, read-out: IC50 (nM) Geometric mean
# Sequence of Somatostatin sst5 (P35346 whole entry): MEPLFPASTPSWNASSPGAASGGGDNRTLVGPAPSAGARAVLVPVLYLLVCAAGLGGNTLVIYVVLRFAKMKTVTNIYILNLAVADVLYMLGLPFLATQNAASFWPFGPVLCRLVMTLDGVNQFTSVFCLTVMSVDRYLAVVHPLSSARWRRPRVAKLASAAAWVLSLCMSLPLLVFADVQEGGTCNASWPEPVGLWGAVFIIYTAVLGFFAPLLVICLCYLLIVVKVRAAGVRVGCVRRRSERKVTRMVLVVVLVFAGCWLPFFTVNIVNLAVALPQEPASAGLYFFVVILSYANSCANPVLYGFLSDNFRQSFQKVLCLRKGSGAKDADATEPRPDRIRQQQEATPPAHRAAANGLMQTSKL
compound,measurement,setting,value
"Cc1cc(-c2ncnn2C)c2cccc(OCc3c(Cl)cc(F)cc3[C@H](C)NC(=O)COC(F)F)c2n1 [Compound 3, (S)-N-(1-(3-chloro-5-fluoro-2-((2-methyl-4-(1-methyl-1H-1,2,4-triazol-5-yl)quinolin-8-yloxy)methyl)phenyl)ethyl)-2-(difluoromethoxy)acetamide]",inhibition at 10 µM,Somatostatin sst5,2%
same,inhibition at 10 µM,Prostanoid FP,19%
same,inhibition at 10 µM,Prostacyclin IP (PGI2),-5%
same,IC50,B2 receptor [1]; [5],0.97 nM
same,Ki,"B2 receptor [1]; arithmetic mean, read-out: Ki (nM) Mean",0.5 nM
same,IC50,B2 receptor [1]; [6],0.97 nM
same,Ki,"B2 receptor [1]; geometric mean, read-out: Ki (nM) Geometric mean",0.5 nM
same,inhibition at 10 µM,Motilin,5%
same,inhibition at 10 µM,Histamine H3,6.2%
same,% Inhibition @ 10 µM,[2],12%
same,IC50,B2 receptor [3]; [5],2.13 nM
same,Kb,"B2 receptor [3]; arithmetic mean, read-out: Kb (nM) Mean",0.24 nM
same,IC50,B2 receptor [3]; [6],2.13 nM
same,Kb,"B2 receptor [3]; geometric mean, read-out: Kb (nM) Geometric mean",0.24 nM
same,inhibition at 10 µM,Adrenergic β3,8.1%
same,IC50,dog B2 receptor,~7600 nM
same,Kb,dog B2 receptor,~2700 nM
same,inhibition at 10 µM,Chemokine CCR1,-9.6%
same,inhibition at 10 µM,Melanocortin MC5,-9.6%
same,IC50,TP (TXA2/PGH2),3600 nM
same,Kb,TP (TXA2/PGH2),510 nM
same,% of reference agonist response @ 10 µM (agonist effect),"TP (TXA2/PGH2); 10 µM, reference U 44069 (0.3 µM)",-2.8%
same,inhibition at 10 µM,"TP (TXA2/PGH2); first entry of Table S2, single concentration",62.3%
same,inhibition at 10 µM,"TP (TXA2/PGH2); second entry of Table S2, with IC50 and KB",55.1%
same,inhibition at 10 µM,Serotonin 5-HT2A,-3.8%
same,inhibition at 10 µM,Dopamine transporter,2.2%
same,inhibition of binding or functional activity at most targets,"[4]; 10 μM, most targets incl. bradykinin B1 and angiotensin AT1, except V1a, CRF1, EP1, TP, NK1",< 50%
same,"agonism at V1a, CRF1, TP, NK1, NK3","[4]; full concentration-response curves, agonist mode",no agonism
same,inhibition at 10 µM,Chemokine CXCR2 (IL-8RB),17%
